{
  "source": "patent US9775802B2",
  "about": "“Method for preparing suspensions of low-solubility materials” (Bausch & Lomb Incorporated, priority 2009, dated 2017)",
  "origin": "cited, not measured here",
  "settings": "for solubility in water, estimated: 'estimated to be'",
  "note": "Structures can show the parent of a compound that is named as a salt. Where two headings read alike, the source gives them in different places.",
  "data": [
    {"smiles": "CC[C@H]1OC(=O)[C@H](C)[C@@H](O[C@H]2C[C@@](C)(OC)[C@@H](O)[C@H](C)O2)[C@H](C)[C@@H](O[C@@H]2O[C@H](C)C[C@H](N(C)C)[C@H]2O)[C@](C)(O)C[C@@H](C)CN(C)[C@H](C)[C@@H](O)[C@]1(C)O", "note": "[azithromycin dihydrate]", "values": [
      {"measurement": "solubility in water", "setting": "37° C.", "value": "about 39 mg/mL"}
    ]},
    {"smiles": "CC[C@H]1OC(=O)[C@H](C)[C@@H](O[C@H]2C[C@@](C)(OC)[C@@H](O)[C@H](C)O2)[C@H](C)[C@@H](O[C@@H]2O[C@H](C)C[C@H](N(C)C)[C@H]2O)[C@](C)(O)C[C@@H](C)CN(C)[C@H](C)[C@@H](O)[C@]1(C)O", "note": "[azithromycin]", "values": [
      {"measurement": "solubility in water", "setting": "temperature not stated", "value": "about 0.5 mg/mL"}
    ]},
    {"smiles": "C[C@@H]1C[C@H]2[C@@H]3CCC4=CC(=O)C=C[C@]4(C)[C@@]3(F)[C@@H](O)C[C@]2(C)[C@@]1(O)C(=O)COP(=O)(O)O", "note": "[dexamethasone phosphate disodium salt]", "values": [
      {"measurement": "solubility in water (in words)", "value": "soluble in water"}
    ]},
    {"smiles": "C[C@@H]1C[C@H]2[C@@H]3CCC4=CC(=O)C=C[C@]4(C)[C@@]3(F)[C@@H](O)C[C@]2(C)[C@@]1(O)C(=O)CO", "note": "[dexamethasone]", "values": [
      {"measurement": "solubility in water", "setting": "25° C.", "value": "about 0.1 mg/mL"}
    ]},
    {"smiles": "O=C(O)Cc1ccccc1Nc1c(Cl)cccc1Cl", "note": "[diclofenac sodium salt]", "values": [
      {"measurement": "solubility in water", "setting": "temperature not stated", "value": "about 50 mg/mL"}
    ]},
    {"smiles": "O=C(O)Cc1ccccc1Nc1c(Cl)cccc1Cl", "note": "[diclofenac]", "values": [
      {"measurement": "solubility in water, estimated", "value": "about 0.002 mg/mL"}
    ]},
    {"smiles": "COc1c(N2C[C@@H]3CCCN[C@@H]3C2)c(F)cc2c(=O)c(C(=O)O)cn(C3CC3)c12", "note": "[moxifloxacin]", "values": [
      {"measurement": "solubility in water, estimated", "value": "about 0.17 mg/mL"}
    ]}
  ]
}
